Earlier results as cited in US20090291140A1, “TREATMENT OF DY[…] TRANSDERMAL ADMINISTRATION OF NONSTEROIDAL ANTI-INFLAMMATORY DRUGS” (priority 2008, published 2009).

Target: T1, 5-lipoxygenase (Homo sapiens, UniProt P09917)
T1 sequence (P09917 1-674): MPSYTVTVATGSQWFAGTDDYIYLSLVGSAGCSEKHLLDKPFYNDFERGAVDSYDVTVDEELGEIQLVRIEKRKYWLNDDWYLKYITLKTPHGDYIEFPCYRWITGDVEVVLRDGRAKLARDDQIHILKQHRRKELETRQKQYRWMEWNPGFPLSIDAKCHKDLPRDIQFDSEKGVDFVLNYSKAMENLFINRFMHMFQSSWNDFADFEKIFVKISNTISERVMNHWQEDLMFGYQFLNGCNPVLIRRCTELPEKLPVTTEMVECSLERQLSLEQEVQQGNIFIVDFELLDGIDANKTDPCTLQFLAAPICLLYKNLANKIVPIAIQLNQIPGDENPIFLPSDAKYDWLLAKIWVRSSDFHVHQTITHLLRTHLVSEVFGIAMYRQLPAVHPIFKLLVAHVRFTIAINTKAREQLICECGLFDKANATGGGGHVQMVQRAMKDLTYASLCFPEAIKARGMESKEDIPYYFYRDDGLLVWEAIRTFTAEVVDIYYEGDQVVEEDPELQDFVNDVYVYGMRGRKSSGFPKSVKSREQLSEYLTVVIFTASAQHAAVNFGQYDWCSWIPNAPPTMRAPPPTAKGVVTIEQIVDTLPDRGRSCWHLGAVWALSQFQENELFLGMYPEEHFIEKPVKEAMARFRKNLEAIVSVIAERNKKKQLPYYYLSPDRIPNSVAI
Conditions: in-vitro studies

Cc1ccc(Cl)c(Nc2ccccc2C(=O)O)c1Cl [meclofenamate]
inhibition of the activity of 5-lipoxygenase: inhibit the activity of 5-lipoxygenase
